By IC50 is commonly meant the concentration that inhibits the measured activity by half.

The source of these data is ChEMBL document CHEMBL3046581, “Synthesis and cytotoxic activity of diaryl urea derivatives with a 4-methylpiperazinylcarbonyl moiety” (Med Chem Res, 2013).

In assay [1] the test system is A549. The assay can be described thus: Cytotoxicity against Homo sapiens (human) A549 cells assessed as growth inhibition at 100 uM after 48 hr by MTT assay. Type of assay: functional. The settings on record: A549, 48 h, read-out: GI.
The subject of assay [2] is A549. Put plainly: Cytotoxicity against Homo sapiens (human) A549 cells assessed as growth inhibition after 48 hr by MTT assay. The class given is functional, cell-based. The conditions noted are these: for IC50: Homo sapiens, A549, 48 h. A general note: Tetrazolium dyes change colour on reduction, which living cells bring about.
Assay [3] deals with PC-3. Put plainly: Cytotoxicity against Homo sapiens (human) PC3 cells assessed as growth inhibition at 100 uM after 48 hr by MTT assay. The conditions noted are these: PC-3, 48 h, read-out: GI. Type of assay: functional.
For assay [4], the system named is PC-3. Put plainly: Cytotoxicity against Homo sapiens (human) PC3 cells assessed as growth inhibition after 48 hr by MTT assay. Type of assay: functional.

As to `CC(=O)Nc1nc2ccc(NC(=O)Nc3ccc(C(=O)N4CCN(C)CC4)cc3)cc2s1`, the inhibition of growth at 100 µM with A549 [1] stood at 93.5%. In addition, in the assay on A549 [2], the “growth inhibition (GI)” value was “Dose-dependent effect” and the IC50 turned out to be 0.57 µM.
As to `CN1CCN(C(=O)c2ccc(NC(=O)Nc3ccc(OCc4cccc(F)c4)c(Cl)c3)cc2)CC1`, the inhibition of growth at 100 µM in the assay on A549 [1] was determined as 74%; in the assay on PC-3 [3], 82.7%. Also, the half-maximal inhibitory concentration (IC50) with A549 [2] is 10.8 µM.
For `Cc1cc(NC(=O)Nc2ccc(C(=O)N3CCN(C)CC3)cc2)ccc1Cl`, the inhibition of growth at 100 µM in the assay with A549 [1] was 27.5%; with PC-3 [3], 35.1%.
In the same order, the values of `CN1CCN(C(=O)c2ccc(NC(=O)Nc3cccc(C(F)(F)F)c3)cc2)CC1` are 21.2% and 37.1%.
Consider `CN1CCN(C(=O)c2ccc(NC(=O)Nc3ccc(F)c(F)c3)cc2)CC1`, for which the inhibition of growth at 100 µM with A549 [1] worked out at 43.1%; with PC-3 [3], 27.6%.
In the case of `CN1CCN(C(=O)c2ccc(NC(=O)Nc3ccc(Cl)c(Cl)c3)cc2)CC1`, the inhibition of growth at 100 µM with A549 [1] came to 36.5%; in the assay on PC-3 [3] it was 28%.
In the same order, the values of `CN1CCN(C(=O)c2ccc(NC(=O)Nc3cccc(C(=O)N4CCCCC4)c3)cc2)CC1` are 19.7% and 31.1%.
On to `CN1CCN(C(=O)c2ccc(NC(=O)Nc3ccc(Cl)c(C(F)(F)F)c3)cc2)CC1`, for which the inhibition of growth at 100 µM in the assay on A549 [1] was 22.6%; in the assay on PC-3 [3] it was 25.5%.
Regarding `CNC(=O)c1cc(Oc2ccc(NC(=O)Nc3ccc(Cl)c(C(F)(F)F)c3)cc2)ccn1` [SORAFENIB], the “growth inhibition (GI)” value with PC-3 [4] was 91.4%; in the assay on A549 [2], “Dose-dependent effect”; with A549 [2] (record 2), 94.8%. In addition, the concentration for half-maximal inhibition (IC50) in the assay with A549 [2] came out at 6.08 µM.
Consider `C#Cc1cccc(NC(=O)Nc2ccc(C(=O)N3CCN(C)CC3)cc2)c1`, for which the values for the inhibition of growth at 100 µM with A549 [1] and in the assay on PC-3 [3] were 45.4% and 49.3%, respectively.
The matching figures for `CN1CCN(C(=O)c2ccc(NC(=O)Nc3ccc(F)c(Cl)c3)cc2)CC1`: 28.4% and 29.9%.
As for `COc1cc(NC(=O)Nc2ccc(C(=O)N3CCN(C)CC3)cc2)cc(OC)c1`, the inhibition of growth at 100 µM with A549 [1] amounted to 28.6%; in the assay with PC-3 [3], 40%.
